A melting point of 164.4 to 164.7 °C was found for `O=c1nc(-c2cc(-c3ccccc3)ccn2)sc2ccccc12` [Example 137, 2-(4-Phenyl-2-pyridyl)-4H-1,3-benzothiazine-4-one] in this work.
A melting point of 199.7 to 199.9 °C was found for `Cc1ccnc(-c2nc(=O)c3ccccc3s2)c1` [Example 138, 2-(4-Methyl-2-pyridyl)-4H-1,3-benzothiazine-4-one] in this work.
A melting point of 232.3 to 232.8 °C was found for `O=c1nc(-c2ccc3c(n2)CCCC3)sc2ccccc12` [Example 139, 2-(5,6,7,8-Tetrahydro-2-quinolyl)-4H-1,3-benzothiazine-4-one] in this work.
A melting point of 150.5 to 150.9 °C was found for `CCc1cccc(-c2nc(=O)c3ccccc3s2)n1` [Example 140, 2-(6-Ethyl-2-pyridyl)-4H-1,3-benzothiazine-4-one] in this work.
A melting point of 207.6 to 207.9 °C was found for `Nc1ccnc(-c2nc(=O)c3ccccc3s2)c1` [Example 142, 2-(4-Amino-2-pyridyl)-4H-1,3-benzothiazine-4-one] in this work.
A melting point of 283.4 to 283.6 °C was found for `N#Cc1ccnc(-c2nc(=O)c3ccccc3s2)c1` [Example 143, 2-(4-Cyano-2-pyridyl)-4H-1,3-benzothiazine-4-one] in this work.
A melting point of 193.2 to 193.3 °C was found for `CCN(CC)C(=O)c1ccc(-c2nc(=O)c3ccccc3s2)nc1` [Example 144, N,N-Diethyl-6-(4-oxo-4H-1,3-benzothiazin-2-yl)nicotinamide] in this work.
A melting point of 276.3 to 276.7 °C was found for `CC(=O)c1ccc(-c2nc(=O)c3ccccc3s2)nc1` [Example 145, 2-(5-Acetyl-2-pyridyl)-4H-1,3-benzothiazine-4-one] in this work.
A melting point of 175.5 to 177.6 °C was found for `CC(C)(C)OC(=O)/C=C/c1cccc(-c2nc(=O)c3ccccc3s2)n1` [Example 147, tert-Butyl (E)-3-[6-(4-oxo-4H-1,3-benzothiazin-2-yl)-2-pyridyl]-2-propenoate] in this work.
A melting point of 115.6 to 115.7 °C was found for `O=C(O)/C=C/c1cccc(-c2nc(=O)c3ccccc3s2)n1` [Example 148, (E)-3-[6-(4-oxo-4H-1,3-benzothiazin-2-yl)-2-pyridyl]-2-prop enoic acid] in this work.
A melting point of 181.5 to 182.1 °C was found for `CC[S+]([O-])c1cccc(-c2nc(=O)c3ccccc3s2)n1` (stereo not shown) [Example 149, 2-[6-(Ethylsulfinyl)-2-pyridyl]-4H-1,3-benzothiazine-4-one] in this work.
A melting point of 201.5 to 203 °C was found for `CCS(=O)(=O)c1cccc(-c2nc(=O)c3ccccc3s2)n1` [Example 150, 2-[6-(Ethylsulfonyl)-2-pyridyl]-4H-1,3-benzothiazine-4-one] in this work.
A melting point of 205 to 206 °C was found for `CC(C)S(=O)(=O)c1cccc(-c2nc(=O)c3ccccc3s2)n1` [Example 152, 2-[6-(Isopropylsulfonyl)-2-pyridyl]-4H-1,3-benzothiazine-4-one] in this work.
With `CC(C)(C)[S+]([O-])c1cccc(-c2nc(=O)c3ccccc3s2)n1` (stereo not shown) [Example 153, 2-[6-(tert-Butylsulfinyl)-2-pyridyl]-4H-1,3-benzothiazine-4-one] the melting point was 180.5 °C (dec.).
A melting point of 233.6 to 234.7 °C was found for `CC(C)(C)S(=O)(=O)c1cccc(-c2nc(=O)c3ccccc3s2)n1` [Example 154, 2-[6-(tert-Butylsulfonyl)-2-pyridyl]-4H-1,3-benzothiazine-4-one] in this work.
A melting point of 146 to 147 °C was found for `CCCCC[S+]([O-])c1cccc(-c2nc(=O)c3ccccc3s2)n1` (stereo not shown) [Example 155, 2-[6(n-Pentylsulfinyl)-2-pyridyl]-4H-1,3-benzothiazine-4-one] in this work.
A melting point of 160 to 161 °C was found for `CCCCCS(=O)(=O)c1cccc(-c2nc(=O)c3ccccc3s2)n1` [Example 156, 2-[6-(n-Pentylsulfonyl)-2-pyridyl]-4H-1,3-benzothiazine-4-one] in this work.
A melting point of 59.5 to 61 °C was found for `CC(C)CC[S+]([O-])c1cccc(-c2nc(=O)c3ccccc3s2)n1` (stereo not shown) [Example 157, 2-(6-Isoamylsulfinyl-2-pyridyl)-4H-1,3-benzothiazine-4-one] in this work.
A melting point of 145.5 to 147 °C was found for `CC(C)CCS(=O)(=O)c1cccc(-c2nc(=O)c3ccccc3s2)n1` [Example 158, 2-(6-Isoamylsulfonyl-2-pyridyl)-4H-1,3-benzothiazine-4-one] in this work.
A melting point of 227 to 228 °C was found for `O=c1nc(-c2cccc(SCc3ccccc3)n2)sc2ccccc12` [Example 159, 2-(6-Benzylthio-2-pyridyl)-4H-1,3-benzothiazine-4-one] in this work.
A melting point of 208.5 to 210 °C was found for `O=c1nc(-c2cccc([S+]([O-])Cc3ccccc3)n2)sc2ccccc12` (stereo not shown) [Example 160, 2-(6-Benzylsulfinyl-2-pyridyl)-4H-1,3-benzothiazine-4-one] in this work.
A melting point of 217 to 218 °C was found for `O=c1nc(-c2cccc(S(=O)(=O)Cc3ccccc3)n2)sc2ccccc12` [Example 161, 2-[6-(Benzylsulfonyl)-2-pyridyl]-4H-1,3-benzothiazine-4-one] in this work.
A melting point of 164.5 to 165.5 °C was found for `O=c1nc(-c2cccc([S+]([O-])CCc3ccccc3)n2)sc2ccccc12` (stereo not shown) [Example 162, 2-[6-(2-Phenylethylsulfinyl)-2-pyridyl]-4H-1,3-benzothiazine-4-one] in this work.
A melting point of 161.5 to 163.5 °C was found for `O=c1nc(-c2cccc(S(=O)(=O)CCc3ccccc3)n2)sc2ccccc12` [Example 163, 2-[6-(2-Phenylethyl)sulfonyl-2-pyridyl]-4H-1,3-benzothiazine-4-one] in this work.
A melting point of 192.5 to 194 °C was found for `O=c1nc(-c2cccc(SCCCc3ccccc3)n2)sc2ccccc12` [Example 164, 2-[6-(3-Phenylpropylthio)-2-pyridyl]-4H-1,3-benzothiazine-4-one] in this work.
A melting point of 164.5 to 165.5 °C was found for `O=c1nc(-c2cccc([S+]([O-])CCCc3ccccc3)n2)sc2ccccc12` (stereo not shown) [Example 165, 2-[6-[(3-Phenylpropyl)sulfinyl]-2-pyridyl]-4H-1,3-benzothiazine-4-one] in this work.
A melting point of 149.5 to 151 °C was found for `O=c1nc(-c2cccc(S(=O)(=O)CCCc3ccccc3)n2)sc2ccccc12` [Example 166, 2-[6-[(3-Phenylpropyl)sulfonyl]-2-pyridyl]-4H-1,3-benzothiazine-4-one] in this work.
A melting point of 151.5 to 153 °C was found for `CSCc1cccc(-c2nc(=O)c3ccccc3s2)n1` [Example 167, 2-(6-Methylthiomethyl-2-pyridyl)-4H-1,3-benzothiazine-4-one] in this work.
A melting point of 184.5 to 185.5 °C was found for `C[S+]([O-])Cc1cccc(-c2nc(=O)c3ccccc3s2)n1` (stereo not shown) [Example 168, 2-(6-Methylsulfinylmethyl-2-pyridyl)-4H-1,3-benzothiazine-4-one] in this work.
A melting point of 230.5 to 231.5 °C was found for `CS(=O)(=O)Cc1cccc(-c2nc(=O)c3ccccc3s2)n1` [Example 169, 2-(6-Methylsulfonylmethyl-2-pyridyl)-4H-1,3-benzothiazine-4-one] in this work.
For `O=c1nc(-c2cccc(CN3CCOCC3)n2)sc2ccccc12` [Example 170, 2-[6-(4-Morpholinomethyl)-2-pyridyl]-4H-1,3-benzothiazine-4-one], the melting point was 191.8 °C (dec.).
A melting point of 167.9 to 169.9 °C was found for `CSc1ccc(-c2nc(=O)c3ccccc3s2)cn1` [Example 171, 2-[6-(Methylthio)-3-pyridyl]-4H-1,3-benzothiazine-4-one] in this work.
A melting point of 276.5 to 277 °C was found for `O=c1nc(-c2c[nH]c3ccccc23)sc2ccccc12` [Example 172, 2-(1H-Indol-3-yl)-4H-1,3-benzothiazine-4-one] in this work.
A melting point of 134.5 to 135.4 °C was found for `COc1ccc2c(=O)nc(-c3cccc(CCC(=O)OC(C)(C)C)n3)sc2c1` [Example 173, tert-Butyl 3-[6-(7-methoxy-4-oxo-4H-1,3-benzothiazin-2-yl)-2-pyridyl]propanoate] in this work.
A melting point of 234.2 to 235.2 °C was found for `COc1ccc2c(=O)nc(-c3cccc(CCC(=O)O)n3)sc2c1` [Example 174, 3-[6-(7-Methoxy-4-oxo-4H-1,3-benzothiazin-2-yl)-2-pyridyl]propionic acid] in this work.
A melting point of 134.8 to 134.9 °C was found for `Cc1ccc2c(=O)nc(-c3cccc(CCC(=O)OC(C)(C)C)n3)sc2c1` [Example 175, tert-Butyl 3-[6-(7-methyl-4-oxo-4H-1,3-benzothiazin-2-yl)-2-pyridyl]propanoate] in this work.
A melting point of 221.9 to 222.5 °C was found for `Cc1ccc2c(=O)nc(-c3cccc(CCC(=O)O)n3)sc2c1` [Example 176, 3-[6-(7-Methyl-4-oxo-4H-1,3-benzothiazin-2-yl)-2-pyridyl]propionic acid] in this work.
A melting point of 148.5 to 149.4 °C was found for `CC(C)(C)OC(=O)CCc1cccc(-c2nc(=O)c3ccc(C(F)(F)F)cc3s2)n1` [Example 177, tert-Butyl 3-[6-(4-oxo-7-trifluoromethyl-4H-1,3-benzothiazin-2-yl)-2-pyridyl]propanoate] in this work.
A melting point of 192.9 to 193.1 °C was found for `O=C(O)CCc1cccc(-c2nc(=O)c3ccc(C(F)(F)F)cc3s2)n1` [Example 178, 3-[6-(4-Oxo-7-trifluoromethyl-4H-1,3-benzothiazin-2-yl)-2-pyridyl]propionic acid] in this work.
A melting point of 158.5 to 159.5 °C was found for `CC(C)(C)OC(=O)CCc1cccc(-c2nc(=O)c3ccc(F)cc3s2)n1` [Example 181, tert-Butyl 3-[6-(7-fluoro-4-oxo-4H-1,3-benzothiazin-2-yl)-2-pyridyl]propanoate] in this work.
A melting point of 215 to 217 °C was found for `O=C(O)CCc1cccc(-c2nc(=O)c3ccc(F)cc3s2)n1` [Example 182, 3-[6-(7-Fluoro-4-oxo-4H-1,3-benzothiazin-2-yl)-2-pyridyl]propionic acid] in this work.
A melting point of 151.8 to 152.1 °C was found for `CC(C)(C)OC(=O)CCc1ccnc(-c2nc(=O)c3ccc(Cl)cc3s2)c1` [Example 183, tert-Butyl 3-[2-(7-chloro-4-oxo-4H-1,3-benzothiazin-2-yl)-4-pyridyl]propanoate] in this work.
A melting point of 137.6 to 138.1 °C was found for `CC(C)(C)OC(=O)CCc1ccnc(-c2nc(=O)c3ccc(F)cc3s2)c1` [Example 184, tert-Butyl 3-[2-(7-fluoro-4-oxo-4H-1,3-benzothiazin-2-yl)-4-pyridyl]propanoate] in this work.
A melting point of 262.9 to 263.5 °C was found for `O=C(O)CCc1ccnc(-c2nc(=O)c3ccc(Cl)cc3s2)c1` [Example 185, 3-[2-(7-Chloro-4-oxo-4H-1,3-benzothiazin-2-yl)-4-pyridyl]propionic acid] in this work.
In the case of `O=C(O)CCc1ccnc(-c2nc(=O)c3ccc(F)cc3s2)c1` [Example 186, 3-[2-(7-Fluoro-4-oxo-4H-1,3-benzothiazin-2-yl)-4-pyridyl]propionic acid], the melting point is reported as 240 °C (dec.).
A melting point of 172.9 to 173.7 °C was found for `CC(C)(C)OC(=O)CCc1ccnc(-c2nc(=O)c3ccc(Br)cc3s2)c1` [Example 187, tert-Butyl 3-[2-(7-bromo-4-oxo-4H-1,3-benzothiazin-2-yl)-4-pyridyl]propanoate] in this work.
